Test [1] deals with Bacterial 70S ribosome. Nature of the test: Binding affinity to Escherichia coli ribosome assessed as inhibition of transcription-translation activity preincubated for 30 mins followed by substrate addition measured after 5 mins by luciferase assay.
Test [2] in a line: Binding affinity to 2AP-labelled duplex RNA (unknown origin) by fluorescence spectrophotometric analysis.
In test [3] the test system is Escherichia coli. Nature of the test: Antibacterial activity against kanamycin-resistant Escherichia coli K-12 JW 0451-2 harboring acrB747 deletion mutant assessed as growth inhibition after 18 hrs by geometric microdilution method. The format is functional. The settings on record: K-12 JW 0451-2, 18 h. A general note: In broth dilution the organism is exposed to a series of concentrations in liquid medium.

The subject of test [4] is Escherichia coli. Nature of the test: Antibacterial activity against kanamycin-resistant Escherichia coli K-12 JW 3596-1 harboring rfaC733 deletion mutant assessed as growth inhibition after 18 hrs by geometric microdilution method. The settings on record: K-12 JW 3596-1, 18 h. In kind it is functional.
In test [5] the test system is Escherichia coli. Nature of the test: Antibacterial activity against kanamycin-resistant Escherichia coli K-12 JW 5503-1 harboring tolc732 deletion mutant assessed as growth inhibition after 18 hrs by geometric microdilution method. In kind it is functional. Conditions: K-12 JW 5503-1, 18 h.
Test [6] deals with Escherichia coli. Nature of the test: Antibacterial activity against Escherichia coli ATCC 25922 assessed as growth inhibition after 18 hrs by geometric microdilution method. In kind it is functional.
Test [7] deals with Pseudomonas aeruginosa. Nature of the test: Antibacterial activity against Pseudomonas aeruginosa ATCC 27853 assessed as growth inhibition after 18 hrs by geometric microdilution method. In kind it is functional.
The test system of test [8] is Staphylococcus aureus. Nature of the test: Antibacterial activity against Staphylococcus aureus ATCC 29213 assessed as growth inhibition after 18 hrs by geometric microdilution method. In kind it is functional.

Our source for the IC50, EC50 and MIC values is ChEMBL document CHEMBL3112524, “Rigid spiroethers targeting the decoding center of the bacterial ribosome” (Bioorg Med Chem, 2014).

The IC50 is the point on the concentration scale where inhibition reaches its midpoint. As usually defined, the EC50 is the concentration giving half of the maximal effect. A high value points to a less potent agent. As a reminder, the MIC is the least concentration at which growth counts as inhibited.

Values after ≈ are worked out from the molar mass of the structure shown. Active and inactive are the calls of the source. The calls are words filed in the database; no cut-off is given here.

Take `NCCCC[C@H](N)C(=O)N[C@@H]1C[C@H](N)[C@@]2(CC[C@@H](O)[C@@H](O)CO2)[C@H](O)[C@H]1O`: the IC50 in test [1] is above 600 µM. Moreover, the 50% effective concentration (EC50) in test [2] was 1.2 µM.
With `N[C@@H](Cc1ccc(O)cc1)C(=O)N[C@@H]1C[C@H](N)[C@@]2(C[C@H](O)[C@H](O)CO2)[C@H](O)[C@H]1O`, in test [1], the IC50 was above 600 µM.
The same measure, in the same setting: the same measure for `N[C@@H](Cc1ccc(O)cc1)C(=O)N[C@@H]1C[C@H](N)[C@@]2(CC[C@H](O)[C@H](O)CO2)[C@H](O)[C@H]1O`: 450 µM.
As for `N=C(N)NCCC[C@H](N)C(=O)NC[C@@H]1CC[C@@]2(O1)[C@H](O)[C@@H](O)[C@H](N)C[C@@H]2N`, in test [1], the IC50 came to 98 µM. In addition, it took 1.5 µM to reach a half-maximal effect in test [2] (EC50).
In test [2], `NCC[C@H](O)C(=O)N[C@@H]1C[C@H](N)[C@@]2(CC[C@H](O)[C@H](O)CO2)[C@H](O)[C@H]1O` showed an EC50 of 6.9 µM.
As for `N[C@H](CN[C@@H]1C[C@H](N)[C@@]2(CC[C@@H](O)[C@@H](O)CO2)[C@H](O)[C@H]1O)Cc1ccc(O)cc1`, the IC50 in test [1] is above 600 µM.
With `N[C@@H]1C[C@H](N)[C@@]2(CC[C@H](O)[C@H](O)CO2)[C@H](O)[C@H]1O`, the EC50 in test [2] is 74 µM.
As for `NCC[C@H](O)CN[C@@H]1C[C@H](N)[C@@]2(CC[C@H](O)[C@H](O)CO2)[C@H](O)[C@H]1O`, the IC50 in test [1] is above 600 µM. Also, the concentration giving a half-maximal response (EC50) in test [2] is 0.93 µM.
On to `NCCCC[C@H](N)C(=O)N[C@@H]1C[C@H](N)[C@@]2(CC[C@H](O)[C@H](O)CO2)[C@H](O)[C@H]1O`, for which the EC50 in test [2] came to 12 µM.
In the case of `N[C@@H]1C[C@H](N)[C@@]2(CC[C@@H](CNC(=O)[C@@H](N)Cc3c[nH]c4ccccc34)O2)[C@H](O)[C@H]1O`, the minimum inhibitory concentration (MIC) was 32.5 µg/mL (≈ 77.8 µM) in test [3]; above 131 µg/mL in test [4]; 131 µg/mL (≈ 314 µM) in test [5]; 98 µg/mL (≈ 235 µM) in test [6] (ATCC 25922, 18 h); 65 µg/mL (≈ 156 µM) in test [7] (ATCC 27853, 18 h); 8.4 µg/mL (≈ 20.1 µM) in test [8] (ATCC 29213, 18 h). Moreover, the 50% inhibitory concentration (IC50) in test [1] stood at 149 µM.
With `NCC[C@H](O)C(=O)N[C@@H]1C[C@H](N)[C@@]2(CC[C@@H](O)[C@@H](O)CO2)[C@H](O)[C@H]1O`, the IC50 in test [1] was above 600 µM. In addition, a half-maximal effect in test [2] (EC50) was put at 0.39 µM.
With `NC[C@@H]1O[C@H](O[C@H]2[C@@H](O)[C@H](O[C@@H]3[C@@H](O)[C@H](N)C[C@H](N)[C@H]3O[C@H]3O[C@H](CO)[C@@H](O)[C@H](O)[C@H]3N)O[C@@H]2CO)[C@H](N)[C@@H](O)[C@@H]1O` [PAROMOMYCIN], the MIC in test [3] came to 113 µg/mL (≈ 184 µM); in test [4] it was 113 µg/mL (≈ 184 µM); in test [5], 113 µg/mL (≈ 184 µM); in test [6] (ATCC 25922, 18 h), 4 µg/mL (≈ 6.5 µM); in test [7] (ATCC 27853, 18 h), 113 µg/mL (≈ 184 µM); in test [8] (ATCC 29213, 18 h), 4 µg/mL (≈ 6.5 µM).
Regarding `NCCCC[C@H](N)CN[C@@H]1C[C@H](N)[C@@]2(CC[C@H](O)[C@H](O)CO2)[C@H](O)[C@H]1O`, the MIC in test [3] is 118 µg/mL (≈ 313 µM); in test [4] it was above 118 µg/mL; in test [5], 118 µg/mL (≈ 313 µM); in test [6] (ATCC 25922, 18 h) it was 236 µg/mL (≈ 627 µM); in test [7] (ATCC 27853, 18 h), above 118 µg/mL; in test [8] (ATCC 29213, 18 h), 3.8 µg/mL (≈ 10.1 µM). Moreover, in test [1], the half-inhibitory concentration (IC50) was found to be 100 µM. The response in test [2] was half-maximal at 0.09 µM (EC50).
As for `N[C@@H](Cc1ccc(O)cc1)C(=O)N[C@@H]1C[C@H](N)[C@@]2(CC[C@@H](O)[C@@H](O)CO2)[C@H](O)[C@H]1O`, the IC50 in test [1] is above 600 µM.
With `N[C@H](CN[C@@H]1C[C@H](N)[C@@]2(CC[C@H](O)[C@H](O)CO2)[C@H](O)[C@H]1O)Cc1ccc(O)cc1`, the MIC was 129 µg/mL (≈ 313 µM) in test [3], above 129 µg/mL in test [4] and above 129 µg/mL in test [5]. The MIC result in test [6], in test [7] and in test [8] was “inactive” each time. In test [1], the IC50 was above 600 µM.
For `N[C@@H]1C[C@H](N)[C@@]2(CC[C@@H](CNC(=O)[C@@H]3CCCN3)O2)[C@H](O)[C@H]1O`, the IC50 in test [1] amounted to 156 µM. This molecule had a concentration giving a half-maximal response (EC50) in test [2] of 0.68 µM.
`NCC[C@H](O)C(=O)N[C@@H]1C[C@H](N)[C@@]2(C[C@H](O)[C@H](O)CO2)[C@H](O)[C@H]1O`: in test [1], the IC50 was above 600 µM. Also, the EC50 in test [2] came out at 12.6 µM.
`N[C@@H]1C[C@H](N)[C@@]2(C[C@H](O)[C@H](O)CO2)[C@H](O)[C@H]1O`: the half-maximal effective concentration (EC50) in test [2] came out at 6.5 µM.
Turning to `NCCCC[C@H](N)CN[C@@H]1C[C@H](N)[C@@]2(CC[C@@H](O)[C@@H](O)CO2)[C@H](O)[C@H]1O`, the minimal inhibitory concentration (MIC) is 118 µg/mL (≈ 313 µM) in test [3]; above 118 µg/mL in test [4]; above 118 µg/mL in test [5]; 236 µg/mL (≈ 627 µM) in test [6] (ATCC 25922, 18 h); above 118 µg/mL in test [7] (ATCC 27853, 18 h); 14.7 µg/mL (≈ 39 µM) in test [8] (ATCC 29213, 18 h). In addition, in test [1], the IC50 was above 600 µM. The molecule also gave a concentration for a half-maximal effect (EC50) in test [2] of 0.65 µM.
Consider `N[C@@H]1C[C@H](N)[C@@]2(CC[C@@H](CNC(=O)[C@@H](N)Cc3cnc[nH]3)O2)[C@H](O)[C@H]1O`, for which the half-inhibitory concentration (IC50) in test [1] was 172 µM. This molecule also showed a concentration for a half-maximal effect (EC50) in test [2] of 1.6 µM.
With `NCCCC[C@H](N)C(=O)NC[C@@H]1CC[C@@]2(O1)[C@H](O)[C@@H](O)[C@H](N)C[C@@H]2N`, the MIC is above 112 µg/mL in test [3]; 112 µg/mL (≈ 312 µM) in test [4]; above 112 µg/mL in test [5]; above 112 µg/mL in test [6] (ATCC 25922, 18 h); above 112 µg/mL in test [7] (ATCC 27853, 18 h); 7.2 µg/mL (≈ 20 µM) in test [8] (ATCC 29213, 18 h). Moreover, in test [1], the IC50 was 325 µM. Further, in test [2], it took 1.4 µM to reach a half-maximal effect (EC50).
`N[C@@H]1C[C@H](N)[C@@]2(CC[C@@H](CNC(=O)[C@@H](N)Cc3ccc(O)cc3)O2)[C@H](O)[C@H]1O`: the IC50 in test [1] was above 600 µM.
As to `NCCCC[C@H](N)C(=O)N[C@@H]1C[C@H](N)[C@@]2(C[C@H](O)[C@H](O)CO2)[C@H](O)[C@H]1O`, the IC50 in test [1] was 350 µM. For the same molecule, the response in test [2] was half-maximal at 0.89 µM (EC50).
On to `NCCCC[C@H](N)CN[C@@H]1C[C@H](N)[C@@]2(C[C@H](O)[C@H](O)CO2)[C@H](O)[C@H]1O`, for which the IC50 in test [1] is 540 µM. In test [2], this molecule displayed a 50% effective concentration (EC50) of 0.15 µM.
As for `N[C@@H]1C[C@H](N)[C@@]2(CC[C@@H](O)[C@@H](O)CO2)[C@H](O)[C@H]1O`, in test [2], the 50% effective concentration (EC50) was determined as 141 µM.
In the case of `NC[C@H]1O[C@H](O[C@H]2[C@H](O)[C@@H](O)[C@H](N)C[C@@H]2N)[C@H](N)[C@@H](O)[C@@H]1O` [NEAMINE], the minimal inhibitory concentration (MIC) amounted to 150 µg/mL (≈ 465 µM) in test [3]; 150 µg/mL (≈ 465 µM) in test [4]; 300 µg/mL (≈ 931 µM) in test [5]; 14 µg/mL (≈ 43.4 µM) in test [6] (ATCC 25922, 18 h); 73 µg/mL (≈ 226 µM) in test [7] (ATCC 27853, 18 h); 5 µg/mL (≈ 15.5 µM) in test [8] (ATCC 29213, 18 h). The molecule further had a concentration for a half-maximal effect (EC50) in test [2] of 9.5 µM.
